Like-named read-outs stand apart in the source and are kept apart here.
How the values were obtained:
[1] = tested on: MYC protein expression in MCF-7 breast cancer cells; test: Western blotting of MYC protein level in MCF-7 cells; assay type: cell-based, human; settings: Homo sapiens, MCF7; western blotting, MCF-7 cells, 0.5, 1, 2, and 4 μM, 24 hours; read-out: MYC Inhibition
Protocol: MCF-7 cells were incubated with each compound at four concentrations (0.5, 1, 2, and 4 μM) for 24 hours, and the MYC protein levels were measured (FIG. 3A and FIGS. 12 A to 12 F).
Cells were incubated at 37° C. with 5% CO2.
The gels were cut into strips that contained the proteins of interest and transferred to nitrocellulose membrane (I323002, Invitrogen) using an iBlot 2 Dry Transfer Device (Invitrogen). Immunoblotting was carried out according to standard procedures using the ECL detection method. The membrane was hybridized with the following antibodies: monoclonal anti-MYC (1:1000 dilution; rabbit, Cell Signaling Technology), monoclonal anti-GAPDH (1:2000 dilution; rabbit, Cell Signaling Technology).

[2] = tested on: NCI-60 cancer cell lines; test: NCI-60 cancer cell line drug screen (GI50, MGM); assay type: cell-based, human; settings: Homo sapiens; for mean GI50 across NCI-60 panel (MGM): average of GI50 values across the entire panel of NCI-60 cancer cell lines
Protocol: Cancer cells were incubated with the test compounds at five concentrations ranging from 100 μM to 10 nM for 48 h. […] The approximate average of GI50 values across the entire panel of NCI-60 cancer cell lines for each compound was recorded as the MGM value.

[3] = target: T1, human topoisomerase I (Homo sapiens, UniProt P11387); settings: relative topoisomerase I inhibition levels, previously determined, six levels (0 - 5, +++++ = 5); cited from earlier work
T1 sequence (P11387 1-765): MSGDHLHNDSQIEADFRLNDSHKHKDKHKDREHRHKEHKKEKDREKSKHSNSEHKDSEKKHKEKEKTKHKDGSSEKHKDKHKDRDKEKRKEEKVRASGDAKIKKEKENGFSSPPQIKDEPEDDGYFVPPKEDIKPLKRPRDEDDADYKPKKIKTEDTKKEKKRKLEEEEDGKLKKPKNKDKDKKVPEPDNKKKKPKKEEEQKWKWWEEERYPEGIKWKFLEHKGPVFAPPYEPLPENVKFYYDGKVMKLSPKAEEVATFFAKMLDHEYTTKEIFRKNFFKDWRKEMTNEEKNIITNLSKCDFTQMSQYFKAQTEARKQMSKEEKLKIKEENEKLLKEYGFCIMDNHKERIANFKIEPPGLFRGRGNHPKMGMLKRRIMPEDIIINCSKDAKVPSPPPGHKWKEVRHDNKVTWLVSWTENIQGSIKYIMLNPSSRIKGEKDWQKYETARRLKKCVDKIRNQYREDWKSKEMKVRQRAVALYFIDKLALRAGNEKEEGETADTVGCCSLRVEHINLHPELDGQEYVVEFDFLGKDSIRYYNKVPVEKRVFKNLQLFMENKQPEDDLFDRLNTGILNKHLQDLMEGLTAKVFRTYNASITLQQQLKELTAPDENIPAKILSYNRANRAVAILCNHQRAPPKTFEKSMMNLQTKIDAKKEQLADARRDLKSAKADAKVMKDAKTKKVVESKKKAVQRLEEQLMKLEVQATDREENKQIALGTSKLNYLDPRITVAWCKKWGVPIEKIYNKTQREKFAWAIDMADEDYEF

[4] = A549, Non-Small Cell Lung Cancer, A549/ATCC, read-out: Antiproliferative Activities [GI50 (μM)]
[5] = CCRF-CEM, Leukemia, CCRF-CEM, read-out: Antiproliferative Activities [GI50 (μM)]
[6] = COLO 205, Colon Cancer, COLO 205, read-out: Antiproliferative Activities [GI50 (μM)]
[7] = HCC 2998, Colon Cancer, HCC-2998, read-out: Antiproliferative Activities [GI50 (μM)]
[8] = HCT-116, Colon Cancer, HCT-116, read-out: Antiproliferative Activities [GI50 (μM)]
[9] = HL-60, Leukemia, HL-60(TB), read-out: Antiproliferative Activities [GI50 (μM)]
[10] = HOP-62, Non-Small Cell Lung Cancer, HOP-62, read-out: Antiproliferative Activities [GI50 (μM)]
[11] = HOP-92, Non-Small Cell Lung Cancer, HOP-92, read-out: Antiproliferative Activities [GI50 (μM)]
[12] = K562, Leukemia, K-562, read-out: Antiproliferative Activities [GI50 (μM)]
[13] = Leukemia, SR, read-out: Antiproliferative Activities [GI50 (μM)]
[14] = MOLT-4, Leukemia, MOLT-4, read-out: Antiproliferative Activities [GI50 (μM)]
[15] = NCI-H23, Non-Small Cell Lung Cancer, NCI-H23, read-out: Antiproliferative Activities [GI50 (μM)]
[16] = NCI-H226, Non-Small Cell Lung Cancer, NCI-H226, read-out: Antiproliferative Activities [GI50 (μM)]
[17] = NCI-H460, Non-Small Cell Lung Cancer, NCI-H460, read-out: Antiproliferative Activities [GI50 (μM)]
[18] = NCI-H522, Non-Small Cell Lung Cancer, NCI-H522, read-out: Antiproliferative Activities [GI50 (μM)]
[19] = RPMI-8226, Leukemia, RPMI-8226, read-out: Antiproliferative Activities [GI50 (μM)]

Compound | minimal effective concentration [1] | GI50 [2, 4] | GI50 [2, 5] | GI50 [2, 6] | GI50 [2, 7] | GI50 [2, 8] | GI50 [2, 9] | GI50 [2, 10] | GI50 [2, 11] | GI50 [2, 12] | GI50 [2, 13] | GI50 [2, 14] | GI50 [2, 15] | GI50 [2, 16] | GI50 [2, 17] | GI50 [2, 18] | GI50 [2, 19] | mean GI50 across NCI-60 panel (MGM) [2] | Top1 Inhibiton [3] | other results
COc1cc2c3c(n(CCCN)c(=O)c2cc1OC)-c1cc2c(cc1C3=O)OCO2 [Compound 45] | 2 µM | 0.11 µM | < 0.01 µM | 0.3 µM | 0.1 µM | 0.12 µM | 0.22 µM | 0.06 µM | 1.65 µM | 0.09 µM | < 0.01 µM | < 0.01 µM | 0.13 µM | 1.39 µM | 0.02 µM | 0.07 µM | < 0.01 µM | 0.18 µM | +++ (strong inhibition, +++, MYC expression inhibited at 0.5 to 1.0 μM) | –
COc1cnc2c(c1)C(=O)c1c-2n(CCCN2CCN(C)CC2)c(=O)c2cc(Cl)ccc12 [Compound 4] | – | – | – | – | – | – | – | – | – | – | – | – | – | – | – | – | – | – | + (weak inhibition, +, MYC expression inhibited at 4.0 μM) | –
COc1cnc2c(c1)C(=O)c1c-2n(CCCN2CCNCC2)c(=O)c2cc(Cl)ccc12 [Compound 1] | – | – | – | – | – | – | – | – | – | – | – | – | – | – | – | – | – | – | + (weak inhibition, +, MYC expression inhibited at 4.0 μM) | –
COc1cc2c3c(n(CCCNCCO)c(=O)c2cc1OC)-c1cc2c(cc1C3=O)OCO2 [Compound 44] | 0.5 to 1 µM | – | – | – | – | – | – | – | – | – | – | – | – | – | – | – | – | – | – | GI50 ([2]; A549, read-out: Antiproliferative Activities [GI50 (μM)]): 0.03 µM; GI50 ([2]; CCRF-CEM, read-out: Antiproliferative Activities [GI50 (μM)]): < 0.01 µM; GI50 ([2]; COLO 205, read-out: Antiproliferative Activities [GI50 (μM)]): 0.38 µM; GI50 ([2]; EKVX, read-out: Antiproliferative Activities [GI50 (μM)]): 0.26 µM; GI50 ([2]; HCT-116, read-out: Antiproliferative Activities [GI50 (μM)]): 0.07 µM; GI50 ([2]; HL-60, read-out: Antiproliferative Activities [GI50 (μM)]): < 0.01 µM; GI50 ([2]; HOP-62, read-out: Antiproliferative Activities [GI50 (μM)]): 0.01 µM; GI50 ([2]; HOP-92, read-out: Antiproliferative Activities [GI50 (μM)]): 0.83 µM; GI50 ([2]; K562, read-out: Antiproliferative Activities [GI50 (μM)]): 0.02 µM; GI50 ([2]; MOLT-4, read-out: Antiproliferative Activities [GI50 (μM)]): < 0.01 µM; GI50 ([2]; NCI-H23, read-out: Antiproliferative Activities [GI50 (μM)]): < 0.01 µM; GI50 ([2]; NCI-H226, read-out: Antiproliferative Activities [GI50 (μM)]): 0.21 µM; GI50 ([2]; NCI-H322M, read-out: Antiproliferative Activities [GI50 (μM)]): 0.05 µM; GI50 ([2]; NCI-H460, read-out: Antiproliferative Activities [GI50 (μM)]): < 0.01 µM; GI50 ([2]; NCI-H522, read-out: Antiproliferative Activities [GI50 (μM)]): < 0.01 µM; GI50 ([2]; RPMI-8226, read-out: Antiproliferative Activities [GI50 (μM)]): 0.01 µM; GI50 ([2]; read-out: Antiproliferative Activities [GI50 (μM)]): < 0.01 µM; IC50 ([2]; read-out: MGM): 0.06 µM
COc1cc2c3c(n(CCCNC4=NCCS4)c(=O)c2cc1OC)-c1cc2c(cc1C3=O)OCO2 [Compound 50] | 2 µM | < 0.01 µM | < 0.01 µM | < 0.01 µM | < 0.01 µM | < 0.01 µM | 0.29 µM | < 0.01 µM | < 0.01 µM | < 0.01 µM | < 0.01 µM | < 0.01 µM | 0.02 µM | 0.05 µM | < 0.01 µM | 0.02 µM | 0.02 µM | 0.04 µM | – | GI50 ([2]; EKVX, Non-Small Cell Lung Cancer, EKVX, read-out: Antiproliferative Activities [GI50 (μM)]): 2.57 µM; GI50 ([2]; NCI-H322M, Non-Small Cell Lung Cancer, NCI-H322M, read-out: Antiproliferative Activities [GI50 (μM)]): 3.18 µM

Source: patent publication US20210382058A1, “PATIENT SELECTION FOR TREATMENT OF MYC POSITIVE CANCERS WITH INDENOISOQUINOLINES” (Purdue Research Foundation, priority 2020, published 2021)
